# “And” between values parts separate entries of the source, which are not always exact repeats. Equal entries are not always repeated.
# How the values were obtained:
# CETP = test: Inhibition of CETP activity in vivo: [3H]CE transfer from HDL to VLDL and LDL after intravenous injection; set-up: species or system golden Syrian hamster; details: hamsters, injection into jugular vein; for % Inhibition of CETP activity: versus control animals
# From the text: Inhibition of CETP by a test compound can be determined by administering the compound to an animal by intravenous injection, determining the rate of transfer of tritium-labeled cholesteryl ester (^3H]CE) from HDL to VLDL and LDL particles, and comparing the rate of transfer with the rate of transfer observed in control animals.
# Male golden Syrian hamsters were maintained on a diet of chow containing 0.24% cholesterol for at least two weeks prior to the study. Immediately before the experiment, animals were anesthetized with pentobarbital. Anesthesia was maintained throughout the experiment. Indwelling catheters were inserted into the jugular vein and carotid artery. Test compound, Dimethyl 5,5′-dithiobis[2-difluoromethyl)-4-(2-methylpropyl)-6-(trifluoromethyl)-3-pyridinecarboxylate] (Compound 181), was dissolved as a 80 mM stock solution in vehicle (2% ethanol: 98% PEG 400, Sigma Chemical Company, St. Louis, Mo., USA). At the start of the experiment all animals received 0.2 ml of a solution containing [^3H]-CE-HDL into the jugular vein. [^3H[-CE-HDL is a preparation of human HDL containing tritium-labeled cholesteryl ester, and was prepared according to the method of Glenn et al. (“Quantification of Cholesteryl Ester Transfer Protein (CETP): A) CETP Activity and B) Immunochemical Assay of CETP Protein,” Meth. Enzymol., Glenn and Melton (Meth. Enzymol., 263, 339-351 (1996) which is incorporated herein by reference).
# After 2 minutes, the animals received 0.1 ml of the test solution injected into the jugular vein. Control animals received 0.1 ml of the vehicle solution without test compound. After 5 minutes, the first blood samples (0.5 ml) were taken from the carotid artery and collected in standard microtainer tubes containing ethylenediamine tetraacetic acid. Saline (0.5 ml) was injected to flush the catheter and replace blood volume. Subsequent blood samples were taken at two hours and four hours by the same method. Blood samples were mixed well and kept on ice until the completion of the experiment.
# Plasma was obtained by centrifugation of the blood samples at 4° C. The plasma (50 μl) was then treated with 5 μl of precipitating reagent (dextran sulfate, 10 g/l; 0.5M magnesium chloride to remove VLDL/LDL. After centrifugation, the resulting supernatant (25 μl) containing the HDL was analyzed for radioactivity using a liquid scintillation counter. The percentage [^3H] CE transferred from HDL to LDL and VLDL (% transfer) was calculated based on the total radioactivity in equivalent serum samples before precipitation. Typically, the amount of transfer from HDL to LDL and VLDL in control animals was 30 to 35% after four hours. The polyethylene glycol vehicle was determined to have no effect on CETP activity in this model.
# (Compound 181), and five animals that received vehicle. At two hours, mean values of 13% [^3H]-Ce transfer from HDL to LDL and VLDL were obtained for the control animals, but only 4.7% transfer for the animals receiving Compound 181. […] Student t-tests were performed to determine if the means for control and animals treated with Compound 181 were statistically different.
# [1] = target: T1, CETP in human plasma or serum pool (Homo sapiens, UniProt P11597); test: Whole serum CETP activity assay (tritiated cholesterol ester); assay type: biochemical; details: 4 hours at 37° C.
# T1 construct: from tissue; host or cells: pooled human EDTA plasma or serum from healthy volunteers
# T1 sequence (P11597 18-493): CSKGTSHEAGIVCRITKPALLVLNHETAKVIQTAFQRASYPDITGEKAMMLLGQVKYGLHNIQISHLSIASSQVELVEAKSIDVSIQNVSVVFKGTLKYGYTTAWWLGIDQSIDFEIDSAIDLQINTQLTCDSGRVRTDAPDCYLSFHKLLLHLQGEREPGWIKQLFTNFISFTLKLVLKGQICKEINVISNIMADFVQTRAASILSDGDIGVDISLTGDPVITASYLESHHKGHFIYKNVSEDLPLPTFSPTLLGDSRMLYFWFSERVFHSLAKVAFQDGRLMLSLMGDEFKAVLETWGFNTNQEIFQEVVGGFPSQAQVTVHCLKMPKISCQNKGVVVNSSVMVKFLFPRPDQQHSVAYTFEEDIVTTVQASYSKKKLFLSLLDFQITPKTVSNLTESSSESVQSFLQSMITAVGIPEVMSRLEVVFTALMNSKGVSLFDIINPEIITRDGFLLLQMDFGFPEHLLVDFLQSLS
# Experimental: Blood was obtained from healthy volunteers recruited from the personnel of Monsanto Company, Saint Louis, Mo. Blood was either collected in tubes containing EDTA (EDTA plasma pool) or in tubes without EDTA (spun to form the serum pool). The EDTA human plasma pool or human serum pool, previously stored at −20° C., was thawed at room temperature, and centrifuged for 5 minutes to remove any particulate matter. Tritiated HDL, radiolabeled in the cholesteryl ester moiety ([^3H]CE-HDL) as described by Morton and Zilversmit (J. Biol. Chem., 256, 11992-95 (1981) which is incorporated by reference herein), was added to the plasma or serum to a final concentration of (25 μg/ml cholesterol).
# Inhibitor compounds were added to the plasma or serum as follows: Equal volumes of the plasma or serum containing the [^3H]CE-HDL (396 μl) were pipetted into micro tubes (Titertube®, Bio-Rad Laboratories, Hercules, Calif.). Compounds, usually dissolved as 20-50 mM stock solutions in DMSO, were serially diluted in DMSO (or an alternative solvent in some cases, such as dimethylformamide or ethanol). Four μl of each of the serial dilutions of inhibitor compounds or DMSO alone were then added to each of the plasma or serum tubes. The tubes were immediately mixed. Triplicate aliquots (100 μl) from each plasma or serum tube were then transferred to wells of 96-well round-bottomed polystyrene microtiter plates (Corning, Corning, N.Y.). Plates were sealed with plastic film and incubated at 37° C. for 4 hours.
# Test wells contained plasma or serum with dilutions of inhibitor compounds. Control wells contained plasma or serum with DMSO alone. Blank wells contained plasma or serum with DMSO alone that were left in the micro tubes at 4° C. for the 4 hour incubation and were added to the microtiter wells at the end of the incubation period. VLDL and LDL were precipitated by the addition of 10 μl of precipitating reagent (1% (w/v) Dextran Sulfate (Dextralip50)/0.5M magnesium chloride, pH 7.4) to all wells. The wells were mixed on a plate mixer and then incubated at ambient temperature for 10 min. The plates were then centrifuged at 1000×g for 30 mins at 10° C. The supernatants (50 μl) from each well were then transferred to Picoplate™ 96 plate wells (Packard, Meriden, Conn.) containing […] Microscint™-40 (Packard, Meriden, Conn.). The plates were heat-sealed (TopSeal™-P, Packard, Meriden, Conn.) according to the manufacturers directions and mixed for 30 min.
# Radioactivity was measured on a microplate scintillation counter (TopCount, Packard, Meriden, Conn.). […] The maximum percent transfer (in the control wells) was determined using the following equation: [formula]
# The percent of control transfer determined in the wells containing inhibitor compounds was determined as follows: [formula]
# IC50 values were then calculated from plots of % control versus concentration of inhibitor compound.
smiles,measurement,setting,value
"COC(=O)c1c(C(F)F)nc(C(F)(F)F)c(SSc2c(C(F)(F)F)nc(C(F)F)c(C(=O)OC)c2CC(C)C)c1CC(C)C [Compound 181, Dimethyl 5,5′-Dithiobis[2-(difluoromethyl)-4-(2-methylpropyl)-6-(trifluoromethyl)-3-pyridinecarboxylate]]",% Transfer of [3H]-CE from HDL to LDL and VLDL,CETP; four hours,10.6%
same,% Inhibition of CETP activity,CETP; four hours,50.8%
same,% Transfer of [3H]-CE from HDL to LDL and VLDL,CETP; two hours,4.7%
same,% Inhibition of CETP activity,CETP; two hours,64% and 63.6%
same,IC50 whole serum CETP activity,[1],16 µM

# Source: US6794396B2, “Substituted pyridines useful for inhibiting cholesteryl ester transfer protein activity” (Pharmacia Corporation, priority 1998, dated 2004)
